Experiments:
Rattus norvegicus [1] = test: Antidepressant activity in Wistar rat assessed as immobility time at 45 mg/kg, ip measured for 5 mins by forced swim test (reference value: 271.9 +/- 7.2 sec); type: functional
[2] = Metabolic stability in rat liver microsomes assessed as compound metabolism incubated for 30 mins in presence of NADPH by LC-MS/MS analysis; type: ADME, Microsome; details: read-out: Drug metabolism
[3] = Cmax in Wistar rat at 10 ml/kg, po or 2 ml/kg, iv measured upto 24 hrs by LC-MS/MS analysis; type: ADME, organism-based; details: in vivo
[4] = Ratio of drug level in brain to plasma in Wistar rat at 10 ml/kg, po or 2 ml/kg, iv measured upto 24 hrs by LC-MS/MS analysis; type: ADME, organism-based; details: brain and plasma, read-out: BPR
Rattus norvegicus [5] = test: Antidepressant activity in Wistar rat assessed as reduction in immobility at 10 mg/kg, po administrated for 3 days and measured for 5 mins by forced swim test relative to control; type: functional; design: scale not given: the % may be the effect or the level left
[6] = Half life in Wistar rat at 10 ml/kg, po or 2 ml/kg, iv measured upto 24 hrs by LC-MS/MS analysis; type: ADME, organism-based; details: in vivo
Rattus norvegicus [7] = test: Antidepressant activity in Wistar rat assessed as reduction in immobility at 3 mg/kg, po administrated for 3 days and measured for 5 mins by forced swim test relative to control; type: functional; design: scale not given: the % may be the effect or the level left
Cytochrome P450 2D6 = Cytochrome P450 2D6 (Homo sapiens, UniProt P10635); test: Inhibition of CYP2D6 in human liver microsomes using dextromethorphan as substrate incubated for 12 min in presence of NADPH by LC-MS/MS analysis; type: ADME
Cytochrome P450 3A4 = Cytochrome P450 3A4 (Homo sapiens, UniProt P08684); test: Inhibition of CYP3A4 in human liver microsomes using midazolam as substrate incubated for 2 min in presence of NADPH by LC-MS/MS analysis; type: ADME
[8] = target: Neuronal acetylcholine receptor; alpha3/beta4 (Homo sapiens, UniProt P30926+P32297); test: Displacement of [3H]epibatidine from human alpha3beta4 nAChR expressed in IMR32 cell membrane by microbeta scintillation counting method; type: cell membranes, IMR-32
[9] = AUC in Wistar rat at 10 ml/kg, po or 2 ml/kg, iv measured upto 24 hrs by LC-MS/MS analysis; type: ADME, organism-based; details: in vivo
[10] = target: Neuronal acetylcholine receptor; alpha4/beta2 (Homo sapiens, UniProt P17787+P43681); test: Displacement of [3H]cytisine from human alpha4beta2 nAChR expressed in CHOK1 cell membrane by microbeta scintillation counting method; type: cell membranes, CHO-K1
Rattus norvegicus [11] = test: Antidepressant activity in Wistar rat assessed as reduction in immobility at 1 mg/kg, po administrated for 3 days and measured for 5 mins by forced swim test relative to control; type: functional; design: scale not given: the % may be the effect or the level left
[12] = Oral bioavailability in Wistar rat at 10 ml/kg measured upto 24 hrs by LC-MS/MS analysis; type: ADME, organism-based; details: in vivo
[13] = Metabolic stability in human liver microsomes assessed as compound metabolism incubated for 30 mins in presence of NADPH by LC-MS/MS analysis; type: ADME, Microsome; details: read-out: Drug metabolism

Sequence of Cytochrome P450 2D6 (P10635 whole entry): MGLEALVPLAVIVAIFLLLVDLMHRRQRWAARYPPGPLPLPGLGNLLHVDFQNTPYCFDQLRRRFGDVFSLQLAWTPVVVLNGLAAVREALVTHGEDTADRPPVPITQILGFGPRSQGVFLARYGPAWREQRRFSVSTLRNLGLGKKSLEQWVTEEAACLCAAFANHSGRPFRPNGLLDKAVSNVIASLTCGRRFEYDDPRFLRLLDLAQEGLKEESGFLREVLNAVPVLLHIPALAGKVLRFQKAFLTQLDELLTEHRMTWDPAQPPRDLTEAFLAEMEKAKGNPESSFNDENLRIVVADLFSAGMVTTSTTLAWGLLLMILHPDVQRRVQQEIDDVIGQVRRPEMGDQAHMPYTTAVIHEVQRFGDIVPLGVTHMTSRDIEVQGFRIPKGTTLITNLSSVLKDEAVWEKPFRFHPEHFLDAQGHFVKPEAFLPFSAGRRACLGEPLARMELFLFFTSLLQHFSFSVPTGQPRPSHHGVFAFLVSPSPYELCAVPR
Sequence of Neuronal acetylcholine receptor; alpha4/beta2 (P17787 whole entry): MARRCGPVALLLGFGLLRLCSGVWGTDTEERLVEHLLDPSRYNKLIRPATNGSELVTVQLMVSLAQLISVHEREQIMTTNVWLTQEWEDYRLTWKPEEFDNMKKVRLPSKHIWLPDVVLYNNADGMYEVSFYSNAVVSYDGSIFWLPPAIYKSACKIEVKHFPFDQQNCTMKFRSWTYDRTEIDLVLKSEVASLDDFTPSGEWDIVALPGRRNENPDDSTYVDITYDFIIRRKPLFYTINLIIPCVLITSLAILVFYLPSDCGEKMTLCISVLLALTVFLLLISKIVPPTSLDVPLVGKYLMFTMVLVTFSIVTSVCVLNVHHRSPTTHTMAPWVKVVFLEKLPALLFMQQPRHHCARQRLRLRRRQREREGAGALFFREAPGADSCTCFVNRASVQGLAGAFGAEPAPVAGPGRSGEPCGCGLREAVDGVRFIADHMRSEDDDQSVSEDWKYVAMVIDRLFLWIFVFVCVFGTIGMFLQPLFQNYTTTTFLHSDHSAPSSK
Sequence of Neuronal acetylcholine receptor; alpha4/beta2 (P43681 whole entry): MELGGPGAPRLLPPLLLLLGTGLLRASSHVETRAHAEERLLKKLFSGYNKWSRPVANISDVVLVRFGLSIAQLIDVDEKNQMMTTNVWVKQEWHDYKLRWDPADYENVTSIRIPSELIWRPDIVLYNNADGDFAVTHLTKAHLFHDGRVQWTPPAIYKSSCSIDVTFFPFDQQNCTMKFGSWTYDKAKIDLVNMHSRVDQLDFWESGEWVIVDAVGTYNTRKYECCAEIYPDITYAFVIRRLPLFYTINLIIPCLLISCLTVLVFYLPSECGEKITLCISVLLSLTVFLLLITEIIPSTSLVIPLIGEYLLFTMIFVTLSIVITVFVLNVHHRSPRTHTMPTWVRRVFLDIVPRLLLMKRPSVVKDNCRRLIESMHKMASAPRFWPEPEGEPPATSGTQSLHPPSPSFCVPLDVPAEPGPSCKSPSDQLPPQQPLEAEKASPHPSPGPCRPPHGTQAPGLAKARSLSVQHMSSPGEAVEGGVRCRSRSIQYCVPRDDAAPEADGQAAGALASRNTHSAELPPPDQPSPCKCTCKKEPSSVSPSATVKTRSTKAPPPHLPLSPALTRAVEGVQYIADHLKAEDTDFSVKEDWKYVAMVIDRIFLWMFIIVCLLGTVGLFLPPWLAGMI
Sequence of Neuronal acetylcholine receptor; alpha3/beta4 (P30926 whole entry): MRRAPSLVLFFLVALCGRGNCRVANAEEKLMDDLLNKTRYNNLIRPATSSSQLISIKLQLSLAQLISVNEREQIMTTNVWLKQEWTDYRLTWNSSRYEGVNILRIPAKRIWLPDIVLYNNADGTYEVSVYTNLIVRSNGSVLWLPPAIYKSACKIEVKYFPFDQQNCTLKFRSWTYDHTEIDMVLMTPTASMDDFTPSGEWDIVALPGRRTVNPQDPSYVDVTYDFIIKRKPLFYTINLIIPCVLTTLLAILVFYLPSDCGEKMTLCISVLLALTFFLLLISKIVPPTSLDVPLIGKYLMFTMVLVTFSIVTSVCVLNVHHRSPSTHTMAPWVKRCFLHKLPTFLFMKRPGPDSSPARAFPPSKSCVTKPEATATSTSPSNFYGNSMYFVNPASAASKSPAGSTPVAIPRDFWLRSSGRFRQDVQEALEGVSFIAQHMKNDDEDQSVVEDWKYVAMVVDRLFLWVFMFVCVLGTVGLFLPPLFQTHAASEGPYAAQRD
Sequence of Neuronal acetylcholine receptor; alpha3/beta4 (P32297 whole entry): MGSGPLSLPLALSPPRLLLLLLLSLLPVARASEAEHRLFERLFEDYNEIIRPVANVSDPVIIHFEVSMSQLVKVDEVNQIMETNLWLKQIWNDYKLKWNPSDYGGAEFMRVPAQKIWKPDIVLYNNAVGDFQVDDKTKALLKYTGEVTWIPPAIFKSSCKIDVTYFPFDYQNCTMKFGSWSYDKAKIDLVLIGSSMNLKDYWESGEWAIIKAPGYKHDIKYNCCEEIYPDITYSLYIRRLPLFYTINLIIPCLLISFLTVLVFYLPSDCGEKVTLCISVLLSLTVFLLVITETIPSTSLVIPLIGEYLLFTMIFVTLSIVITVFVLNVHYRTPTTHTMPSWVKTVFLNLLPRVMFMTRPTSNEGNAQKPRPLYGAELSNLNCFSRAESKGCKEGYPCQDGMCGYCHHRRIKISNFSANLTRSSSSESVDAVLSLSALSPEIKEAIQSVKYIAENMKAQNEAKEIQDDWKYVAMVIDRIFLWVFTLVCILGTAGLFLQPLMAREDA
Sequence of Cytochrome P450 3A4 (P08684 whole entry): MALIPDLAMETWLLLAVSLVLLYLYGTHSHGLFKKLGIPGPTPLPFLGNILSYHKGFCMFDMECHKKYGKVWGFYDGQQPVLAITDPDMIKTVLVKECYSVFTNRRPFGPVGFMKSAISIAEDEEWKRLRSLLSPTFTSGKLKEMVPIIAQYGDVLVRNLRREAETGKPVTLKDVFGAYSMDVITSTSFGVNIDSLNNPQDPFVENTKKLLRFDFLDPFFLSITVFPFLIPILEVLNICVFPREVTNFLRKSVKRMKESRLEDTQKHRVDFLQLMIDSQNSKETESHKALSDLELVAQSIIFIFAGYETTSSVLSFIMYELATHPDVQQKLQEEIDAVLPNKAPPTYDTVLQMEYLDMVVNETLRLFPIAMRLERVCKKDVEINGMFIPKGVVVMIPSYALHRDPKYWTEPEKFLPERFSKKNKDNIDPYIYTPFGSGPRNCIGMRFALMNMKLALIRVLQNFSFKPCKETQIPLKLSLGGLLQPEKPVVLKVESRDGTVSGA

Row | SMILES | Time (Rattus norvegicus [1]) | metabolised at 0.5 h [2] | Cmax [3] | Kp at 24 h [4] | Activity (Rattus norvegicus [5]) | half-life [6] | Activity (Rattus norvegicus [7]) | IC50 (Cytochrome P450 2D6) | IC50 (Cytochrome P450 3A4) | Ki [8] | AUC at 24 h [9] | Ki [10] | Activity (Rattus norvegicus [11]) | bioavailability [12] | metabolised at 0.5 h [13]
1 | CN(C)CCCN1c2ccccc2CCc2ccccc21 [IMIPRAMINE] | 176.5 s |  |  |  |  |  |  |  |  |  |  |  |  |  | 
2 | Cl.Clc1ncccc1OC[C@@H]1C[C@H]2C[C@H]2N1 |  | 14.9% | 921 ng/mL | 3.6 | 15.8% | 2.15 h | 24.7% | > 42 µM | > 45 µM | > 10 µM | 2160 ng·h/mL | 0.0175 µM | 10% | 54% | 29.5%
